According to US6727382B1, “Peroxyacids” (Unilever Patent Holdings, B.V., priority 1992, dated 2004):

Experiments:
[1] = Bleaching of tea stained test cloths with peroxyacid formed in situ with SDS or Coco-PAS (Example VIII); settings: EDTA 2×10^−5 M, pH 10; for ΔR460* Coco-PAS: peracid 1×10^−3 mol with Coco-PAS 2×10^−3 mol in 100 ml demineralised water; for ΔR460* SDS: peracid 1×10^−3 mol with SDS 2×10^−3 mol in 100 ml demineralised water
Experimental: (§1) Bleaching experiments were carried out in a temperature controlled glass vessel, equipped with a magnetic stirrer, thermocouple and a pH electrode, at a constant temperature of 40° C. pH was adjusted using 0.1M NaOH.
(§2) Peracid prepared according to example I was exchanged with SDS and 1×10^−3 mol added to 100 ml demineralised water and ethylene diamine tetraacteic acid (EDTA) (2×10^−5 M) in the glass vessel. Thereafter, tea stained test cloths were immersed in the solution for 30 minutes. The liquor to cloth ratio was greater than 20:1. After rinsing with tap water, the cloths were dried in a tumble drier.
(§3) Bleaching performance was determined using a Instrumental Colour Systems Micro-match to measure the reflectance, at 460 nm, of the cloths both before and after treatment. The difference (ΔR460*) in the values gives a measure of the effectiveness of the treatment.
Example VI was repeated using materials prepared according to examples I-VI and the comparative example. Peracid (1×10^−3 mol) was added to a glass vessel containing 100 ml demineralised water, EDTA, (2×10^−5 M), and SDS or Coco-PAS (2×10^−3 mol), i.e cationic peroxyacids according to the invention were formed in-situ. The pH was adjusted to pH 10 using 0.1NaOH. The difference (ΔR460*) in the values gives a measure of the effectiveness of the bleaching performance.

[2] = Bleaching of tea stained test cloths, reflectance at 460 nm (Example VII); settings: 40° C., 30 minutes, 1×10^−3 mol peracid in 100 ml demineralised water, EDTA 2×10^−5 M
Experimental: as §1, §2, §3

| Compound | ΔR460* Coco-PAS [1] | ΔR460* SDS [1] | ΔR460* bleaching performance ([2]; pH 7.0) | ΔR460* bleaching performance ([2]; pH 8.0) | ΔR460* bleaching performance ([2]; pH 9.0) | ΔR460* bleaching performance ([2]; pH 10.0) |
| --- | --- | --- | --- | --- | --- | --- |
| α-Pentyl-dimethylammonium-4-peroxytoluic Acid Tosylate [Example VI] | 18.6 | 21.9 | – | – | – | – |
| α-Butyl-dimethylammonium-4-peroxytoluic Acid Tosylate [Example V] | 21.8 | 23.7 | – | – | – | – |
| O=C(CCCCCN1C(=O)c2ccccc2C1=O)OO [PAP] | – | – | 13.0 | 13.0 | 6.0 | 4.0 |
| C[N+](C)(Cc1ccccc1)Cc1ccc(C(=O)OO)cc1.Cc1ccc(S(=O)(=O)[O-])cc1 [Example II, α-Benzyl-dimethylammonium-4-peroxytoluic Acid Tosylate] | 18.9 | 21.9 | – | – | – | – |
| C[N+](C)(C)CCOC(=O)Oc1ccc(S(=O)(=O)[O-])cc1 [CSPC, 2-(N,N,N-trimethylammonium)ethyl-4-sulphonyl carbonate] | – | – | 20.0 | 22.0 | 20.0 | – |
| CCCCCCCCC(=O)Oc1ccc(S(=O)(=O)[O-])cc1.[Na+] [SNOBS, Sodium nonoyloxybenzene sulphonate] | – | – | – | – | 7.5 | 5.0 |
| αHexyl-dimethylammonium-4-peroxytoluic Acid Tosylate [Example III] | 16.1 | 23.5 | – | – | – | – |
| CS(=O)(=O)[O-].C[N+](C)(C)Cc1ccc(C(=O)OO)cc1 [Example I, α-Trimethylammonium-4-peroxytoluic Acid Methane Sulphonate] | 26.7 | 24.0 | – | – | – | – |
| α-Heptyl-Dimethylammonium-4-Peroxytoluic Acid Tosylate [Example IV] | – | 14.5 | – | – | – | – |
| α-Octyl-dimethylammonium-4-peroxytoluic Acid Tosylate [Comparison] | 7.6 | 8.0 | – | – | – | – |
